Where “and” joins values, the source holds several entries; their conditions need not be identical. Equal values may be shown once. Inconclusive results and toxic doses are left out.
Test system: CD2F1 mice, L1210 leukemia ip, survival T/C
Assay: NCI In Vivo Anticancer Drug Screen. Data for tumor model L1210 Leukemia (intraperitoneal) in CD2F1 (CDF1) mice
Conditions: higher = longer survival
Outline: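 Antitumor effect is scored in animals hosting a serially transplanted tumor. Values compare compound-dosed animals against vehicle-only controls as a simple quotient.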

[1] = endpoint: mean survival time, dose: 100.0 mg/kg/injection, schedule: Q04DX003 (ip), vehicle: saline with Tween-80
[2] = endpoint: mean survival time, dose: 200.0 mg/kg/injection, schedule: Q04DX003 (ip), vehicle: saline with Tween-80
[3] = endpoint: mean survival time, dose: 50.0 mg/kg/injection, schedule: Q01DX009 (ip), vehicle: saline with Tween-80
[4] = endpoint: mean survival time, dose: 100.0 mg/kg/injection, schedule: Q01DX009 (ip), vehicle: saline with Tween-80
[5] = endpoint: mean survival time, dose: 200.0 mg/kg/injection, schedule: Q01DX009 (ip), vehicle: saline with Tween-80
[6] = endpoint: mean survival time, dose: 12.5 mg/kg/injection, schedule: Q04DX002 (ip), vehicle: saline with Tween-80
[7] = endpoint: mean survival time, dose: 25.0 mg/kg/injection, schedule: Q04DX002 (ip), vehicle: saline with Tween-80
[8] = endpoint: mean survival time, dose: 50.0 mg/kg/injection, schedule: Q04DX002 (ip), vehicle: saline with Tween-80
[9] = endpoint: mean survival time, dose: 400.0 mg/kg/injection, schedule: Q04DX003 (ip), vehicle: saline with Tween-80
[10] = endpoint: mean survival time, dose: 50.0 mg/kg/injection, schedule: Q04DX003 (ip), vehicle: saline
[11] = endpoint: mean survival time, dose: 100.0 mg/kg/injection, schedule: Q01DX001 (ip), vehicle: saline
[12] = endpoint: mean survival time, dose: 100.0 mg/kg/injection, schedule: Q01DX009 (ip), vehicle: saline
[13] = endpoint: mean survival time, dose: 100.0 mg/kg/injection, schedule: Q04DX003 (ip), vehicle: saline
[14] = endpoint: mean survival time, dose: 200.0 mg/kg/injection, schedule: Q01DX001 (ip), vehicle: saline
[15] = endpoint: mean survival time, dose: 100.0 mg/kg/injection, schedule: Q01DX009 (ip), vehicle: Klucel (hydroxypropylcellulose) (HPC)
[16] = endpoint: mean survival time, dose: 200.0 mg/kg/injection, schedule: Q04DX002 (ip), vehicle: saline with Tween-80
[17] = endpoint: mean survival time, dose: 25.0 mg/kg/injection, schedule: Q04DX003 (ip), vehicle: saline

CCOC(=O)Nc1cc2c(c(N)n1)N=C(c1ccccc1)CO2
T/C (endpoint: median survival time, dose: 25.0 mg/kg/injection, schedule: Q01DX009 (ip), vehicle: saline with Tween-80): 97 % of control | T/C (endpoint: median survival time, dose: 50.0 mg/kg/injection, schedule: Q01DX009 (ip), vehicle: saline with Tween-80): 117 % of control and 107 % of control and 108 % of control | T/C (endpoint: median survival time, dose: 100.0 mg/kg/injection, schedule: Q01DX009 (ip), vehicle: saline with Tween-80): 122 % of control and 112 % of control (2×) | T/C (endpoint: median survival time, dose: 200.0 mg/kg/injection, schedule: Q01DX009 (ip), vehicle: saline with Tween-80): 115 % of control and 116 % of control and 117 % of control

ClCc1ccc(CCl)c(Cl)c1Cl
T/C [1]: 96 % of control

CCOC(=O)N/N=C/c1cc(Cl)ccc1O
T/C (endpoint: mean survival time, dose: 50.0 mg/kg/injection, schedule: Q04DX003 (ip), vehicle: saline with Tween-80): 98 % of control | T/C [1]: 93 % of control | T/C [2]: 91 % of control

CC(C(=O)OC1CCCC2OC12)S(=O)(=O)c1ccccc1 (centres undefined)
T/C [3]: 90 % of control | T/C [4]: 94 % of control | T/C [5]: 94 % of control

COC(=O)c1n[nH]c(C(C)C)c1N=NN(C)C
T/C (endpoint: mean survival time, dose: 37.5 mg/kg/injection, schedule: Q01DX009 (ip), vehicle: saline with Tween-80): 106 % of control | T/C (endpoint: mean survival time, dose: 75.0 mg/kg/injection, schedule: Q01DX009 (ip), vehicle: saline with Tween-80): 121 % of control | T/C (endpoint: mean survival time, dose: 150.0 mg/kg/injection, schedule: Q01DX009 (ip), vehicle: saline with Tween-80): 92 % of control

C[N+](C)(C)CCCNC(=O)Nc1ccc(Cl)cc1
T/C (endpoint: mean survival time, dose: 6.25 mg/kg/injection, schedule: Q04DX002 (ip), vehicle: saline): 106 % of control | T/C (endpoint: mean survival time, dose: 25.0 mg/kg/injection, schedule: Q04DX002 (ip), vehicle: saline): 100 % of control

c1ccc2c(c1)cc1cnc3cccc4ccc2c1c43
T/C [6]: 96 % of control | T/C [7]: 101 % of control | T/C [8]: 90 % of control

COC1(c2ccccc2)CN(Cc2ccccc2)CCO1 (centres undefined)
T/C [1]: 103 % of control | T/C [2]: 100 % of control | T/C [9]: 106 % of control

Cc1ccc(NC(=O)Oc2ccc(C(C)(C)C)cc2Br)c(C)c1
T/C [3]: 101 % of control | T/C [4]: 96 % of control | T/C [5]: 116 % of control

CCOC(=O)C(C(=O)COC)C(=O)OCC
T/C (endpoint: mean survival time, dose: 25.0 mg/kg/injection, schedule: Q01DX009 (ip), vehicle: water): 102 % of control | T/C (endpoint: mean survival time, dose: 50.0 mg/kg/injection, schedule: Q01DX009 (ip), vehicle: water): 97 % of control | T/C (endpoint: mean survival time, dose: 100.0 mg/kg/injection, schedule: Q01DX009 (ip), vehicle: water): 97 % of control | T/C (endpoint: mean survival time, dose: 200.0 mg/kg/injection, schedule: Q01DX009 (ip), vehicle: water): 94 % of control

C(=C\c1nccc2c1[nH]c1ccccc12)/c1ccccc1
T/C [1]: 105 % of control | T/C [2]: 100 % of control | T/C [9]: 105 % of control

COc1cc(/C=C(\C#N)c2ccc(Cl)cc2)ccc1OCc1ccccc1
T/C [3]: 95 % of control | T/C [4]: 90 % of control | T/C [1]: 89 % of control | T/C [5]: 90 % of control | T/C [2]: 89 % of control | T/C [9]: 89 % of control

O=C1[O][Sb]23[O]C(=O)C([O]2)C(O)C(O)C2[O][Sb]4([O]C(=O)C([O]4)C(O)C(O)C1[O]3)[O]C2=O (centres undefined)
T/C (endpoint: mean survival time, dose: 25.0 mg/kg/injection, schedule: Q01DX009 (ip), vehicle: saline): 95 % of control | T/C (endpoint: mean survival time, dose: 50.0 mg/kg/injection, schedule: Q01DX001 (ip), vehicle: saline): 97 % of control | T/C (endpoint: mean survival time, dose: 50.0 mg/kg/injection, schedule: Q01DX009 (ip), vehicle: saline): 95 % of control | T/C [10]: 87 % of control | T/C [11]: 101 % of control | T/C [12]: 98 % of control | T/C [13]: 91 % of control | T/C [14]: 96 % of control

C(=C\CN(Cc1ccccc1)Cc1ccccc1)/CN(Cc1ccccc1)Cc1ccccc1
T/C [15]: 95 % of control | T/C (endpoint: mean survival time, dose: 200.0 mg/kg/injection, schedule: Q01DX009 (ip), vehicle: Klucel (hydroxypropylcellulose) (HPC)): 97 % of control

Nc1cn[nH]c(=O)c1
T/C (endpoint: mean survival time, dose: 100.0 mg/kg/injection, schedule: Q01DX001 (ip), vehicle: carboxymethylcellulose (CMC)): 102 % of control | T/C (endpoint: mean survival time, dose: 200.0 mg/kg/injection, schedule: Q01DX001 (ip), vehicle: carboxymethylcellulose (CMC)): 100 % of control | T/C (endpoint: mean survival time, dose: 400.0 mg/kg/injection, schedule: Q01DX001 (ip), vehicle: carboxymethylcellulose (CMC)): 92 % of control

O=c1c2ccccc2ncn1CCc1ccncc1
T/C [11]: 104 % of control | T/C [14]: 101 % of control | T/C (endpoint: mean survival time, dose: 400.0 mg/kg/injection, schedule: Q01DX001 (ip), vehicle: saline): 103 % of control

CCOC(=O)/C=C(C)/C=C/C1C(C)=CCCC1(C)C (centres undefined)
T/C (endpoint: mean survival time, dose: 100.0 mg/kg/injection, schedule: Q04DX002 (ip), vehicle: saline with Tween-80): 103 % of control | T/C [16]: 92 % of control | T/C (endpoint: mean survival time, dose: 400.0 mg/kg/injection, schedule: Q04DX002 (ip), vehicle: saline with Tween-80): 100 % of control

CC(=O)OCC1OC(OC(C)=O)C(NC(=O)C[NH-])C(OC(C)=O)C1OC(C)=O.CC(=O)OCC1OC(OC(C)=O)C(NC(=O)C[NH-])C(OC(C)=O)C1OC(C)=O.[Cl][Pt+2][Cl] (centres undefined)
T/C (endpoint: mean survival time, dose: 12.5 mg/kg/injection, schedule: Q04DX003 (ip), vehicle: saline): 96 % of control | T/C [17]: 98 % of control | T/C [10]: 98 % of control | T/C [13]: 106 % of control | T/C (endpoint: mean survival time, dose: 200.0 mg/kg/injection, schedule: Q04DX003 (ip), vehicle: saline): 98 % of control

O=C(O)CCn1ccccc1=O
T/C [4]: 94 % of control | T/C [1]: 95 % of control | T/C [5]: 93 % of control | T/C [2]: 96 % of control | T/C (endpoint: mean survival time, dose: 400.0 mg/kg/injection, schedule: Q01DX009 (ip), vehicle: saline with Tween-80): 94 % of control | T/C [9]: 95 % of control

O=C1CCC(=O)O1
T/C [4]: 95 % of control | T/C [5]: 102 % of control

C1CN(CC2COC(CN3CCOCC3)CO2)CCO1 (centres undefined)
T/C [12]: 102 % of control | T/C (endpoint: mean survival time, dose: 200.0 mg/kg/injection, schedule: Q01DX009 (ip), vehicle: saline): 102 % of control | T/C (endpoint: mean survival time, dose: 400.0 mg/kg/injection, schedule: Q01DX009 (ip), vehicle: saline): 104 % of control

O=C(Oc1ccc(=O)[nH]n1)c1ccccc1
T/C [6]: 98 % of control | T/C [7]: 94 % of control | T/C [8]: 90 % of control and 94 % of control | T/C [16]: 87 % of control

CNNCCCCC(=O)NC(C)C
T/C [17]: 105 % of control | T/C [10]: 101 % of control | T/C [13]: 101 % of control

COc1ccc(C2(O)C3CCC2CC3)cc1 (centres undefined)
T/C [6]: 96 % of control | T/C [7]: 101 % of control | T/C [8]: 108 % of control

C=Cc1cc(OC)c2c(c1)c(=O)oc1c2cc(OC)c2c(O)ccc(C3OC(C)C(O)C(C)(O)C3O)c21 (centres undefined)
T/C (endpoint: median survival time, dose: 5.0 mg/kg/injection, schedule: Q01DX009 (ip), vehicle: DMSO): 107 % of control | T/C (endpoint: median survival time, dose: 10.0 mg/kg/injection, schedule: Q01DX009 (ip), vehicle: DMSO): 116 % of control and 111 % of control | T/C (endpoint: median survival time, dose: 10.0 mg/kg/injection, schedule: Q01DX009 (ip), vehicle: other): 118 % of control | T/C (endpoint: median survival time, dose: 20.0 mg/kg/injection, schedule: Q01DX009 (ip), vehicle: DMSO): 116 % of control and 122 % of control | T/C (endpoint: median survival time, dose: 80.0 mg/kg/injection, schedule: Q01DX009 (ip), vehicle: DMSO): 155 % of control | T/C (endpoint: median survival time, dose: 160.0 mg/kg/injection, schedule: Q01DX009 (ip), vehicle: DMSO): 120 % of control | T/C (endpoint: median survival time, dose: 160.0 mg/kg/injection, schedule: Q01DX009 (ip), vehicle: other): 113 % of control

CN(C(=S)S(=O)(=O)C12CC3CC(CC(C3)C1)C2)c1ccccc1
T/C (endpoint: mean survival time, dose: 3.12 mg/kg/injection, schedule: Q01DX009 (ip), vehicle: Klucel (hydroxypropylcellulose) (HPC)): 94 % of control and 96 % of control and 105 % of control | T/C (endpoint: mean survival time, dose: 6.25 mg/kg/injection, schedule: Q01DX009 (ip), vehicle: Klucel (hydroxypropylcellulose) (HPC)): 100 % of control (2×) and 105 % of control | T/C (endpoint: mean survival time, dose: 12.5 mg/kg/injection, schedule: Q01DX009 (ip), vehicle: Klucel (hydroxypropylcellulose) (HPC)): 100 % of control and 102 % of control and 107 % of control | T/C (endpoint: mean survival time, dose: 25.0 mg/kg/injection, schedule: Q01DX009 (ip), vehicle: Klucel (hydroxypropylcellulose) (HPC)): 98 % of control and 102 % of control and 107 % of control | T/C (endpoint: mean survival time, dose: 50.0 mg/kg/injection, schedule: Q01DX009 (ip), vehicle: Klucel (hydroxypropylcellulose) (HPC)): 96 % of control and 104 % of control and 105 % of control | T/C [15]: 117 % of control and 96 % of control and 102 % of control

CCCCCCCCCCCCCC(=O)[O][Sn]([CH2]CCC)([CH2]CCC)[O]C(=O)CCCCCCCCCCCCC
T/C (endpoint: mean survival time, dose: 0.78 mg/kg/injection, schedule: Q01DX009 (ip), vehicle: other): 97 % of control | T/C (endpoint: mean survival time, dose: 1.56 mg/kg/injection, schedule: Q01DX009 (ip), vehicle: other): 100 % of control | T/C (endpoint: mean survival time, dose: 3.13 mg/kg/injection, schedule: Q01DX009 (ip), vehicle: other): 112 % of control

Source: PubChem BioAssay AID256 (DTP/NCI, 2004)
